Test results: ChEMBL document CHEMBL5614459, “Conformationally Constrained Isoquinolinones as Orally Efficacious Hepatitis B Capsid Assembly Modulators” (ACS Med Chem Lett, 2024)
Activity calls are given as the source filed them. The calls are words filed in the database; no cut-off is given here.

Experiments:
[1] = system: Hepatitis B virus; test: Antiviral activity against Hepatitis B virus genotype D infected in HepDE19 cells assessed as inhibition of viral replication by measuring decrease in intracellular rcDNA level by bDNA assay; type: functional, organism-based
[2] = Cytotoxicity against human HepDE19 cells by CellTiter-Glo assay; type: toxicity, cell-based
[3] = Selectivity index, ratio of CC50 for cytotoxicity against human HepDE19 cells to EC50 for antiviral activity against Hepatitis B virus genotype D infected in HepDE19 cells; type: toxicity, cell-based; details: read-out: Ratio CC50/EC50
[4] = AUC(last) in CD-1 mouse at 10 mg/kg, po; type: ADME, organism-based; details: in vivo
[5] = Cmax in CD-1 mouse at 10 mg/kg, po; type: ADME, organism-based; details: in vivo
[6] = Drug uptake in CD-1 mouse liver at 10 mg/kg, po or 2 mg/kg, iv measured after 24 hrs; type: ADME, organism-based; details: read-out: Drug uptake
[7] = Half life in CD-1 mouse at 10 mg/kg, po; type: ADME, organism-based; details: in vivo
[8] = system: Hepatitis B virus; test: Antiviral activity against Hepatitis B virus genotype D infected in HepG2-hNTCP-C4 cells assessed as inhibition of cccDNA formation by de novo infection assay; type: functional, organism-based
[9] = system: Hepatitis B virus; test: Antiviral activity against Hepatitis B virus Genotype C (NCBI AB198079); type: functional, organism-based; details: genotype C (NCBI […])
[10] = system: Hepatitis B virus; test: Anti-viral activity against Hepatitis B virus infected in mouse assessed as log10 reduction of HBV DNA levels in serum at 1 mg/kg, po qd for 7 days; type: functional; details: time 7 day
[11] = system: Hepatitis B virus; test: Antiviral activity against Hepatitis B virus Genotype H (NCBI AB179747); type: functional, organism-based
[12] = system: Hepatitis B virus; test: Antiviral activity against Hepatitis B virus Genotype A (NCBI AF537372); type: functional, organism-based
[13] = Intrinsic clearance in mouse liver microsomes; type: ADME, Microsome; details: read-out: CLH
[14] = system: Hepatitis B virus; test: Antiviral activity against Hepatitis B virus Genotype F (NCBI HE974369); type: functional, organism-based
[15] = system: Hepatitis B virus; test: Antiviral activity against Hepatitis B virus Genotype H (NCBI AB064315); type: functional, organism-based
[16] = system: Hepatitis B virus; test: Antiviral activity against Hepatitis B virus genotype D harboring core protein-T33N mutant; type: functional, organism-based
[17] = system: Hepatitis B virus; test: Antiviral activity against Hepatitis B virus Genotype E (NCBI AB091255); type: functional, organism-based
[18] = system: Hepatitis B virus; test: Antiviral activity against Hepatitis B virus Genotype E (NCBI HE974380); type: functional, organism-based
[19] = Intrinsic clearance in human liver microsomes; type: ADME, Microsome; details: read-out: CLH
[20] = system: Hepatitis B virus; test: Antiviral activity against Hepatitis B virus Genotype B (NCBI GQ205440); type: functional, organism-based
[21] = system: Hepatitis B virus; test: Antiviral activity against Hepatitis B virus genotype D harboring core protein-I105T mutant; type: functional, organism-based
[22] = system: Hepatitis B virus; test: Antiviral activity against Hepatitis B virus Genotype D (NCBI U95551); type: functional, organism-based
[23] = system: Hepatitis B virus; test: Anti-viral activity against Hepatitis B virus infected in mouse assessed as log10 reduction of HBV DNA levels in serum at 0.3 mg/kg, po qd for 7 days; type: functional; details: time 7 day
[24] = molecular target: Core antigen (Hepatitis B virus) (UniProt Q03732); test: Binding affinity to Hepatitis B virus core protein assessed as inhibition of capsid assembly by measuring inhibition of pgRNA-encapsidation; details: filed as modulator
Sequence of Core antigen (Hepatitis B virus) (Q03732 as listed by the source): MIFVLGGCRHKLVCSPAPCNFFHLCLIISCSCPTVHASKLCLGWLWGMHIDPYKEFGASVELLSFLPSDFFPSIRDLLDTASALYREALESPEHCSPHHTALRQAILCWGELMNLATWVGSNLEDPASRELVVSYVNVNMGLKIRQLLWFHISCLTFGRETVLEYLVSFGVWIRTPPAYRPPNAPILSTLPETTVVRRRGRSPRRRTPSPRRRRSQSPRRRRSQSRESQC

[25] = system: Hepatitis B virus; test: Antiviral activity against Hepatitis B virus Genotype B (NCBI KU964112); type: functional, organism-based
[26] = molecular target: Core antigen (Hepatitis B virus) (UniProt Q03732); test: Binding affinity to Hepatitis B virus core protein assessed as inhibition of capsid assembly by measuring induction of empty capsid formation; details: filed as modulator
[27] = system: Hepatitis B virus; test: Anti-viral activity against Hepatitis B virus infected in mouse assessed as log10 reduction of HBV DNA levels in serum at 3 mg/kg, po qd for 7 days; type: functional; details: time 7 day
[28] = Hepatitis B virus, genotype D, HepDE19

CC(C)CN(C(=O)Nc1ccc(F)c(Cl)c1)C1CCCc2[nH]c(=O)c3ccccc3c21 (racemic)
EC50 [1, 28]: 470 nM | CC50 [2]: > 10000 nM | selectivity ratio [3]: > 1500

CN(C(=O)Nc1ccc(F)c(Cl)c1)[C@@H]1CCc2[nH]c(=O)c3ccccc3c21
EC50 [1, 28]: 45 nM | CC50 [2]: > 10000 nM | selectivity ratio [3]: > 1500

CN(C(=O)Nc1ccc(F)c(C#N)c1)[C@@H]1COCc2[nH]c(=O)c3cc(F)c(F)cc3c21
AUC(0-t) [4]: 4330 ng·h/mL | EC50 [1, 28]: 8 nM | Cmax [5]: 720 ng/mL | CC50 [2]: > 10000 nM | concentration at 24 h [6]: 8 ng/g | half-life [7]: 2.4 h | selectivity ratio [3]: > 1500

CN(C(=O)c1cc2cc(F)c(F)cc2[nH]1)[C@@H]1COCc2[nH]c(=O)c3cc(F)c(F)cc3c21
EC50 [8]: 26 nM | EC50 [9]: 1 nM | log(activity) [10]: 2.92 | EC50 [11]: 1 nM | EC50 [12]: 1 nM | microsomal CLint [13]: 25 µL/min/mg | EC50 [14]: 1 nM | EC50 [15]: 1 nM | EC50 [16]: 63 nM | EC50 [17]: 1 nM | AUC(0-t) [4]: 31800 ng·h/mL | EC50 [18]: 13 nM | microsomal CLint [19]: 45 µL/min/mg | EC50 [20]: 1 nM | EC50 [21]: 6 nM | EC50 [22]: 1 nM | EC50 [1, 28]: 5 nM | log(activity) [23]: 1.48 | Activity [24]: Active | EC50 [25]: 1 nM | Cmax [5]: 2140 ng/mL | Activity [26]: Active | CC50 [2]: > 10000 nM | concentration at 24 h [6]: 4730 ng/g | half-life [7]: 10.7 h | log(activity) [27]: 2.86 | selectivity ratio [3]: > 1500

CN(C(=O)Nc1ccc(F)c(Cl)c1)C1CCCc2[nH]c(=O)c3ccccc3c21 (racemic)
EC50 ([1]; hepde19): 84 nM | CC50 [2]: > 10000 nM | selectivity ratio [3]: > 1500

CN(C(=O)Nc1ccc(F)c(Cl)c1)C1CCCc2[nH]c(=O)c3cc(F)cc(F)c3c21 (racemic)
EC50 [1, 28]: 510 nM | CC50 [2]: > 10000 nM | selectivity ratio [3]: > 1500

CN(C(=O)Nc1ccc(F)c(Cl)c1)[C@@H]1CNCc2[nH]c(=O)c3cc(F)c(F)cc3c21
microsomal CLint [13]: 23 µL/min/mg | microsomal CLint [19]: 86 µL/min/mg | EC50 [1, 28]: 9 nM | CC50 [2]: > 10000 nM | selectivity ratio [3]: > 1500

CN(C(=O)Nc1ccc(F)c(Cl)c1)[C@@H]1CN(CCO)Cc2[nH]c(=O)c3cc(F)c(F)cc3c21
EC50 [1, 28]: 1360 nM | CC50 [2]: > 10000 nM | selectivity ratio [3]: > 1500

CN(C(=O)Nc1cc(F)c(F)c(F)c1)[C@@H]1COCc2[nH]c(=O)c3cc(F)c(F)cc3c21
EC50 [1, 28]: 18 nM | CC50 [2]: > 10000 nM | selectivity ratio [3]: > 1500

CN(C(=O)Nc1ccc(F)c(Cl)c1)C1CCCc2[nH]c(=O)c3ccccc3c21 (stereo in doubt; 2b)
EC50 ([1]; hepde19): 45 nM

CN(C(=O)Nc1ccccc1)[C@@H]1COCc2[nH]c(=O)c3cc(F)c(F)cc3c21
EC50 [1, 28]: 33 nM | CC50 [2]: > 10000 nM | selectivity ratio [3]: > 1500

CN(C(=O)Nc1ccc(F)c(Cl)c1)C1CCCc2[nH]c(=O)c3ccccc3c21 (stereo in doubt)
EC50 ([1]; hepde19): 760 nM

CC(C)CN(C(=O)Nc1ccc(F)c(Cl)c1)[C@@H]1CCc2[nH]c(=O)c3ccccc3c21
EC50 [1, 28]: 7 nM | CC50 [2]: > 10000 nM | selectivity ratio [3]: > 1500

CN(C(=O)c1cc2ccc(F)cc2[nH]1)[C@@H]1COCc2[nH]c(=O)c3cc(F)c(F)cc3c21
microsomal CLint [13]: 44 µL/min/mg | microsomal CLint [19]: 53 µL/min/mg | EC50 [1, 28]: 9 nM | CC50 [2]: > 10000 nM | selectivity ratio [3]: > 1500
